Source: US12297210B2, “Naphthyridine compounds and uses thereof” (Genentech, Inc., priority 2018, dated 2025)

How the values were obtained:
[1] = molecular target: T1, HPK full length, T165E S171E (Homo sapiens, UniProt Q92918, S171E/T165E); test: HPK1-FL HTRF Enzymatic Assay ("HTRF"); format: biochemical; conditions: ATP 1 mM, read-out: HPK1 Ki (nM) H = HTRF
T1 construct: HPK full length, T165E S171E: 0.125 nM
Protocol: Example B1: HPK1-FL HTRF Enzymatic Assay (“HTRF”)
HPK-FL enzyme phosphorylates Biotin-SLP-76 substrate in the presence of ATP at 1 mM and varying concentrations of test compound. Product is detected by FRET using Eu-anti-pSLP76 Ab and SA-XL665. Also see www.cisbio.com/HTRF for additional HTRF technology information.
• Echo555 compound dispenser • Agilent Bravo • Perkin Elmer Envision Final Assay Conditions: • HPK full length, T165E S171E: 0.125 nM • Biotin-SLP76: 100 nM • ATP: 1 mM (ATP Km=20 μM) • Eu-anti-pSLP76: 2 nM • SA-XL665: 8.3 nM • Preincubation time: 30 min • Kinase reaction time: 60 min • Temperature: ambient • Total volume: 12 μl • ATP^app Km: 17.7 μM Materials: • Assay plate: White ProxiPlate 384 F (PerkinElmer cat #6008289) • Kinase: HPK full length double mutant • Substrate: Biotin-SLP76 • ATP: 100 mM ATP • BSG: 2% BSG • DMSO: DMSO(Sigma cat #34869-100ML) • Reaction Buffer: H2O/50 mM HEPES, pH 7.5/10 mM MgCl2/2 mM TCEP/0.01% Brij-35/0.01% BSG • Detection mix: Eu-anti-pSLP76/SA-XL665 (Cisbio, #610SAXAC) Assay Procedure Ki Determination:
To a 384 well Proxiplate with 80 nL compound or DMSO spotted on was added 4 μl/well kinase mix. The mixture was preincubated for 30 minutes and then 4 μl/well substrate mix was added. The solution was incubated for 60 min and then 4 μl/well detection mix was added. The solution was incubated for another 60 min. The plates were then loaded onto a Perkin Elmer Envision and the TR-FRET signal was measured at 615 and 665 nm. A ratio of […] was used to calculate the % activity at each concentration of compound.

[2] = tested on: primary human pan T cells; test: Human T-Cell IL2 Induction Assay; format: cell-based; conditions: assayed concentration 0.31 μM; anti-CD3/anti-CD28 stimulated primary human pan T cells
Protocol: Example B3: Human T-Cell IL2 Induction Assay
Anti-CD3 and anti-CD28 activates TCR signaling in primary human pan T cells leading to IL-2 promoter induction. Secreted IL-2 in cell culture supernatant is detected by electrochemiluminescence using a capture antibody against IL-2 and an anti-IL-2 antibody labeled with SULFO-tag.
Incubate primary human pan T cells with varying concentrations of test compounds for 30 minutes in a humidified incubator at 37° C. and 5% CO2. Transfer cells to a plate pre-coated with a fixed concentration of anti-human CD3 (determined separately for each donor lot) and add soluble anti-human CD28 (final concentration=1 μg/ml). Stimulate cells in a humidified incubator at 37° C. and 5% CO2 for 4 hours. Transfer 25 μl of supernatant to a MSD single spot plate pre-coated with an anti-human IL-2 antibody. Incubate MSD plate overnight at 4° C. with gentle shaking. Wash MSD plate 4× with wash buffer. Add SULFO-tagged detection antibody at a 1:50 dilution and incubate at room temperature shaking for 2 hours. Wash MSD plate 4× with wash buffer and add 150 μl 2×MSD read buffer. Read on an MSD instrument. […]
Exemplary compounds of Formula (I) were tested in the human T-cell IL-2 induction assays. The % increase measured for IL-2 in cells treated by the test compounds relative to untreated cells are provided in Table B2 for certain compounds.

T1 sequence (Q92918 whole entry T165E/S171E): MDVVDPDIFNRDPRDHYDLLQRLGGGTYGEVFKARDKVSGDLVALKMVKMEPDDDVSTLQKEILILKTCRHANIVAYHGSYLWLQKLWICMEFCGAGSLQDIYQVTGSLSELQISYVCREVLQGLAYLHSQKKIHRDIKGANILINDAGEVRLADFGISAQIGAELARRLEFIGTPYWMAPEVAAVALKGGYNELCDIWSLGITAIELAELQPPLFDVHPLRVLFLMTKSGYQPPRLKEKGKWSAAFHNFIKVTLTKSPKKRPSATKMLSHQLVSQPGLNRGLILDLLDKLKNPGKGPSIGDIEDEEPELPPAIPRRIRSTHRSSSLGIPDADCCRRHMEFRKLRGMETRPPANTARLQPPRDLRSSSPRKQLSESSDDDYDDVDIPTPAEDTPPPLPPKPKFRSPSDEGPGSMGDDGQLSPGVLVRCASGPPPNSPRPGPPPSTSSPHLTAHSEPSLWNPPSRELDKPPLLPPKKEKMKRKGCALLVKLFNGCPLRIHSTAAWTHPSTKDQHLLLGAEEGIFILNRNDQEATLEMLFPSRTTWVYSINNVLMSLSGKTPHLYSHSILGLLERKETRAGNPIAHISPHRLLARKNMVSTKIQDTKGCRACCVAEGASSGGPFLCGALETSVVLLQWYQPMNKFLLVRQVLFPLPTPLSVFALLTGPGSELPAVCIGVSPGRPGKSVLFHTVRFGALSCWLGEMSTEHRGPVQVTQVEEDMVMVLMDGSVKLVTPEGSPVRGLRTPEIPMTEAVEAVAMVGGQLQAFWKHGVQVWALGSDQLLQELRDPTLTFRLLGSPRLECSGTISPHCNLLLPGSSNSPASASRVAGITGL

## Cc1c(N)cncc1-c1cc2cc(Nc3cc4n(n3)CC(=O)N(C)CC43CC3)ncc2c(C)n1 [Compound 101, 2′-((6-(5-amino-4-methylpyridin-3-yl)-8-methyl-2,7-naphthyridin-3-yl)amino)-6′-methyl-5′,6′-dihydrospiro[cyclopropane-1,4′-pyrazolo[1,5-d][1,4]diazepin]-7′(8′H)-one]
[1]
  Ki: 0.27 nM
[2]
  % IL-2 increase relative to untreated cells: 421%
